Measured values from patent publication US20250002489A1, “BIFUNCTIONAL COMPOUNDS FOR DEGRADING ITK VIA UBIQUITIN PROTEOSOME PATHWAY” (NURIX THERAPEUTICS, INC., priority 2021, published 2025).

Tests used:
[1] = molecular target: T1, ITK (C-terminal HiBiT-tagged Molt4 cells) (Homo sapiens, UniProt Q08881); assay: ITK Degradation HiBiT Assay; assay type: cell-based; conditions: for Dmax: MOLT-4, 4 hrs incubation; for DC50: 4 hrs incubation, best fit IC50 used as DC50
T1 construct: expressed in transfected cells; host or cells: Molt4 (ATCC CRL-1552), monoclonal clone 1C10, engineered to express HiBiT-tagged ITK
T1 sequence (Q08881 1-620): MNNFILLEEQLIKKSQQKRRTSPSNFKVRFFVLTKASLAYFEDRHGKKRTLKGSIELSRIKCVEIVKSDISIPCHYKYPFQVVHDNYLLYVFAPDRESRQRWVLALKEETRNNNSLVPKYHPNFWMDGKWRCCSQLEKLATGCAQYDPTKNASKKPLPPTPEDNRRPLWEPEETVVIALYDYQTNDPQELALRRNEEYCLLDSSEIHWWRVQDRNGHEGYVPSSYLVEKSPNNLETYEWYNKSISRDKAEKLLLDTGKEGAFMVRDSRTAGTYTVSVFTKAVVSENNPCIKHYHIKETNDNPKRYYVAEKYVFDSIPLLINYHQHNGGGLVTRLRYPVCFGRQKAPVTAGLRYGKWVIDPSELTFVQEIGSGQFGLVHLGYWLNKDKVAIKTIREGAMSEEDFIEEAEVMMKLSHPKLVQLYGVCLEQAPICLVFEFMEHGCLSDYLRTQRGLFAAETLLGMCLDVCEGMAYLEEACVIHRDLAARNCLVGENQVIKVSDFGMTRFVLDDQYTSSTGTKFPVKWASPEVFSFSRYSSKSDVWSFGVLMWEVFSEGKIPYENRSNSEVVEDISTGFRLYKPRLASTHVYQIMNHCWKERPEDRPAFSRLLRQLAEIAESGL
Procedure: Compounds provided herein were assayed in vitro with ITK HiBit cell lines. Compound dilution series (11-point, 5-fold dilutions in DMSO, columns 2-12 with replicate in rows A/B, C/D, E/F, G, and H at 2000× the final required concentrations were prepared in 96-well plate (Falcon, cat. no. 353077). Column 1, rows A-H were control DMSO. The 2000× solutions ranged from 2 mM to 1.024 nM (final assay concentration range 1 μM to 0.512 pM). The 2000×solutions were added to cells in 10 μL volume, for a final DMSO concentration of 0.5% and final assay compound concentration of 1×. For the cells, C-terminal HiBiT-tagged Molt4 cells (ATCC CRL-1552, monoclonal cell line clone 1C10) were plated at 1×10^6 cells/mL, 100 μL/well ([…]) in complete RPMI (10% FBS, 1% L-glutamine). The cells were incubated with compounds 1-25, 31, and 31 for 4 hrs at 32° C./6% CO2.
Following incubation, 100 μL of complete Nano-Glo HiBiT Lytic Detection Reagent (Nano-Glo HiBiT Lytic Buffer with 1:50 Nano-Glo HiBiT Lytic Substrate and 1:100 LgBiT Protein; Promega cat. no. N3O40) was added. Cells were further incubated for 10 min at room temperature. Luminescence units (LU) were read on an EnVision plate reader (Perkin Elmer, 0.1 sec per well). Percent ITK remaining per sample was calculated as follows: […]
Using Graphpad Prism, % ITK remaining values were plotted as a function of compound concentration. To determine DC50 and Dmax values, resulting curves were fit to the Prism curve-fitting equation “log(inhibitor) vs response−Variable slope (four parameters)” (reported best fit value IC50 used as DC50). ITK was measured with antibody-based MSD (Meso-Scale Discovery) assays shown below.

[2] = molecular target: T2, ITK (Jurkat or Molt4 cells) (Homo sapiens, UniProt Q08881); assay: ITK Degradation MSD (Meso Scale Discovery) Assay; assay type: cell-based; conditions: 4 or 6 hrs incubation; for DC50: best fit IC50 used as DC50
T2 construct: either human Jurkat (Clone E6-1 ATCC TIB-152) or Motl4 (ATCC CRL-1552), were plated; endogenous in cells; host or cells: Jurkat Clone E6-1 (ATCC TIB-152) or Molt4 (ATCC CRL-1552)
T2 sequence (Q08881 1-620): T1 sequence (Q08881 1-620)
Summary of the method: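 Jurkat or Molt4 cells at 1×10^6 cells/mL in RPMI/10% FBS treated 4 or 6 hr at 32° C with 7-point, 5-fold compound dilutions (0.5% DMSO). Lysate ITK quantified by MSD sandwich ECL immunoassay; % ITK remaining fitted by four-parameter curve, IC50 taken as DC50, plus Dmax.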

[3] = Mouse PK analysis, plasma concentration by LC/MS/MS after oral administration; assay type: in vivo; conditions: mice; for concentration at 2 h: timepoint 2 h; for concentration at 6 h: timepoint 6 h
Procedure: Mouse PK Analysis Compounds 17 and 18 were administered to mice orally. After six hours or twenty-four hours, splenocyte cells were harvested. ITK was evaluated by Western blotting. Plasma concentrations were determined by LC/MS/MS. Plasma samples were protein precipitated by addition of 100 μl of acetonitrile containing 50 ng/ml of internal standard. The resulting mixture was vortexed and centrifuged at 4000 rpm for five minutes. An aliquot of the resultant supernatant (75 μl) was added to 75 μl of 0.1% formic acid in water to constitute the final sample for injection. Samples were injected on a Shimadzu Exion LC Binary Gradient AD Pump HLPC system connected to a Sciex QTRAP 6500+ mass spectrometer. 5 μL of sample was injected onto a Waters Acquity UPLC BEH C18 column 130A (2.1×30 mm, […]) at 40° C. utilizing a flow rate of 700 μL/minute.
Mobile Phase A was 0.1% formic acid in water and mobile phase B was 0.1% formic acid in acetonitrile. A linear gradient of 15-95% B over 1.0 minute was used. The mass spectrometer was operated in positive ion electrospray mode with multiple reaction monitoring for maximum sensitivity. Sciex Analyst software (version 1.6.3) was used for LC/MS/MS instrument control and acquisition. Compound concentration was determined against a standard curve of internal standard versus compound peak area ratio. Noncompartmental PK parameters were determined using Phoenix 32 software (version 8.2.0.4383) from Certara. Plasma concentrations from the LC/MS/MS analyses, dose, route of administration, and desired units were utilized for PK parameter calculations.

SMILES | Dmax [1] [%] | DC50 [1] [nM] | Dmax [2] [%] | DC50 [2] [nM] | concentration at 2 h [3] [nM] | concentration at 6 h [3] [nM]
Cc1ncsc1-c1ccc(CNC(=O)[C@@H]2C[C@@H](O)CN2C(=O)[C@@H](NC(=O)C2(F)CC2)C(C)(C)C)c(OC2CN(c3ccnc(N4CC([C@@H](c5ccccc5)n5cc(NC(=O)c6n[nH]c7c6C[C@@H]6C(F)(F)[C@]6(C)C7)cn5)C4)c3)C2)c1 [Compound 35, (4aS,5aR)-5,5-difluoro-N-(1-((S)-(1-(4-(3-(2-(((2S,4R)-1-((S)-2-(1-fluorocyclopropane-1-carboxamido)-3,3-dimethylbutanoyl)-4-hydroxypyrrolidine-2-carboxamido)methyl)-5-(4-methylthiazol-5-yl)phenoxy)azetidin-1-yl)pyridin-2-yl)azetidin-3-yl)(phenyl)methyl)-1H-pyrazol-4-yl)-5a-methyl-1,4,4a,5,5a,6-hexahydrocyclopropa[f]indazole-3-carboxamide] | 35 |  |  |  |  | 
Cc1ncsc1-c1ccc([C@H](C)NC(=O)[C@@H]2C[C@@H](O)CN2C(=O)[C@@H](NC(=O)CCCCCCCC(=O)N2CC([C@@H](c3ccccc3)n3cc(NC(=O)c4n[nH]c5c4C[C@@H]4C(F)(F)[C@]4(C)C5)cn3)C2)C(C)(C)C)cc1 [Compound 28, (4aS,5aR)-5,5-difluoro-N-(1-((S)-(1-(9-(((S)-1-((2S,4R)-4-hydroxy-2-(((S)-1-(4-(4-methylthiazol-5-yl)phenyl)ethyl)carbamoyl)pyrrolidin-1-yl)-3,3-dimethyl-1-oxobutan-2-yl)amino)-9-oxononanoyl)azetidin-3-yl)(phenyl)methyl)-1H-pyrazol-4-yl)-5a-methyl-1,4,4a,5,5a,6-hexahydrocyclopropa[f]indazole-3-carboxamide] | 91 | 1.41 |  |  |  | 
Cc1ncsc1-c1ccc(CNC(=O)[C@@H]2C[C@@H](O)CN2C(=O)[C@@H](NC(=O)C2(F)CC2)C(C)(C)C)c(OCCCCCC(=O)N2CC([C@@H](c3ccccc3)n3cc(NC(=O)c4n[nH]c5c4C[C@@H]4C(F)(F)[C@]4(C)C5)cn3)C2)c1 [Compound 18, (4aS,5aR)-5,5-difluoro-N-(1-((S)-(1-(6-(2-(((2S,4R)-1-((S)-2-(1-fluorocyclopropane-1-carboxamido)-3,3-dimethylbutanoyl)-4-hydroxypyrrolidine-2-carboxamido)methyl)-5-(4-methylthiazol-5-yl)phenoxy)hexanoyl)azetidin-3-yl)(phenyl)methyl)-1H-pyrazol-4-yl)-5a-methyl-1,4,4a,5,5a,6-hexahydrocyclopropa[f]indazole-3-carboxamide] |  |  | 95.1 | 1.47 | 6.1 | 16.2
Cc1ncsc1-c1ccc(CNC(=O)[C@@H]2C[C@@H](O)CN2C(=O)[C@@H](NC(=O)C2(F)CC2)C(C)(C)C)c(OCCOCCC(=O)N2CC([C@@H](c3ccccc3)n3cc(NC(=O)c4n[nH]c5c4C[C@@H]4C(F)(F)[C@]4(C)C5)cn3)C2)c1 [Compound 17, (4aS,5aR)-5,5-difluoro-N-(1-((S)-(1-(3-(2-(2-(((2S,4R)-1-((S)-2-(1-fluorocyclopropane-1-carboxamido)-3,3-dimethylbutanoyl)-4-hydroxypyrrolidine-2-carboxamido)methyl)-5-(4-methylthiazol-5-yl)phenoxy)ethoxy)propanoyl)azetidin-3-yl)(phenyl)methyl)-1H-pyrazol-4-yl)-5a-methyl-1,4,4a,5,5a,6-hexahydrocyclopropa[f]indazole-3-carboxamide] |  |  | 95.7 | 4.51 | 1.8 | 4.5
Cc1ncsc1-c1ccc([C@H](C)NC(=O)[C@@H]2C[C@@H](O)CN2C(=O)[C@@H](NC(=O)CCCCCC(=O)N2CC([C@@H](c3ccccc3)n3cc(NC(=O)c4n[nH]c5c4C[C@@H]4C(F)(F)[C@]4(C)C5)cn3)C2)C(C)(C)C)cc1 [Compound 29, (4aS,5aR)-5,5-difluoro-N-(1-((S)-(1-(7-(((S)-1-((2S,4R)-4-hydroxy-2-(((S)-1-(4-(4-methylthiazol-5-yl)phenyl)ethyl)carbamoyl)pyrrolidin-1-yl)-3,3-dimethyl-1-oxobutan-2-yl)amino)-7-oxoheptanoyl)azetidin-3-yl)(phenyl)methyl)-1H-pyrazol-4-yl)-5a-methyl-1,4,4a,5,5a,6-hexahydrocyclopropa[f]indazole-3-carboxamide] | 84 | 19.7 |  |  |  | 
Cc1ncsc1-c1ccc([C@H](C)NC(=O)[C@@H]2C[C@@H](O)CN2C(=O)[C@@H](NC(=O)CCCCCCCCCC(=O)N2CC([C@@H](c3ccccc3)n3cc(NC(=O)c4n[nH]c5c4C[C@@H]4C(F)(F)[C@]4(C)C5)cn3)C2)C(C)(C)C)cc1 [Compound 27, (4aS,5aR)-5,5-difluoro-N-(1-((S)-(1-(11-(((S)-1-((2S,4R)-4-hydroxy-2-(((S)-1-(4-(4-methylthiazol-5-yl)phenyl)ethyl)carbamoyl)pyrrolidin-1-yl)-3,3-dimethyl-1-oxobutan-2-yl)amino)-11-oxoundecanoyl)azetidin-3-yl)(phenyl)methyl)-1H-pyrazol-4-yl)-5a-methyl-1,4,4a,5,5a,6-hexahydrocyclopropa[f]indazole-3-carboxamide] | 35 |  |  |  |  | 
Cc1ncsc1-c1ccc([C@H](C)NC(=O)[C@@H]2C[C@@H](O)CN2C(=O)[C@@H](NC(=O)CCN2CCC(CCC(=O)N3CC([C@@H](c4ccccc4)n4cc(NC(=O)c5n[nH]c6c5C[C@@H]5C(F)(F)[C@]5(C)C6)cn4)C3)CC2)C(C)(C)C)cc1 [Compound 26, (4aS,5aR)-5,5-difluoro-N-(1-((S)-(1-(3-(1-(3-(((S)-1-((2S,4R)-4-hydroxy-2-(((S)-1-(4-(4-methylthiazol-5-yl)phenyl)ethyl)carbamoyl)pyrrolidin-1-yl)-3,3-dimethyl-1-oxobutan-2-yl)amino)-3-oxopropyl)piperidin-4-yl)propanoyl)azetidin-3-yl)(phenyl)methyl)-1H-pyrazol-4-yl)-5a-methyl-1,4,4a,5,5a,6-hexahydrocyclopropa[f]indazole-3-carboxamide] |  | 6.61 |  |  |  | 
